# Assay results reported in patent US12440451B2, “Compositions and methods using an epigenetic inhibitor” (DANA-FARBER CANCER INSTITUTE, INC., priority 2017, dated 2025).
# Assays:
# other HDACs = conditions: reported; cited from earlier work
# OT-I+ CD8+ T cells [1] = experiment: proliferation of activated T cells (total number of live cells by flow cytometry); type: cell-based, mouse; conditions: FIG. 3
# Experimental: T cells treated with RGFP966 also show increased proliferation relative to untreated T cells. FIG. 3 is a bar chart the total number of live cells detected in flow cytometry for activated OT-I^+ CD8^+ T cells that have been treated with 10 μM, 1 μM RGFP966, and no RGFP966 (vehicle control).
# OT-I+ CD8+ T cells [2] = experiment: immunoblot time course of sorted CD8+ T cells after activation; type: cell-based, mouse; conditions: 3 μM
# Experimental: Analysis was first made on expression of HDAC3 and its known binding partners, global histone acetylation levels, and known regulatory transcription factors of CD8^+ T cell effector function across a time course of T cell activation in the absence or presence of the HDAC3 inhibitor RGFP966.
# To do so, OT-I^+ CD8^+ T cells were activated in vitro for 7 days, as described in FIG. 1 and Example 1 above. Activated cells received either 0 μM or 3 μM of HDAC3 inhibitor RGF966. Sorted CD8^+ T cells from the in vitro co-cultures were then assessed for HDAC3 and various markers by immunoblot at 2, 22, 72, 120, and 168 hours after activation (see immunoblot of FIG. 9A). The markers assessed included: NCOR1 and NCOR2 (part of the HDAC3/NCOR complex): BCL-6, T-BET, and BLIMP-1 (markers of the BCL-6-5-bet pathway): GAPDH and LAMIN BI (protein loading controls): acetylated residues H3K9 and H3K27, and histone H3 (markers of histone H3 acetylation).
# OT-I+ CD8+ T cells [3] = experiment: in vitro CD8+ T cell activation assay with SIINFEKL-pulsed BMDCs, flow cytometry for effector markers; type: cell-based, mouse
# Excerpt: To screen for compounds that may inhibit epigenetic enzymes, an in vitro model of T cell activation by antigen-loaded antigen presenting cells (APCs) was used. CD8^+ T cells were harvested from OT-I T cell receptor transgenic mice. OT-I mice are transgenic for the mouse Tera-V2 and Torb-V5 genes, which form a T cell receptor that recognizes the SIINFEKL peptide (SEQ ID NO: 1) epitope of chicken ovalbumin presented in the context of the Kb MHC I molecule. This allows testing of T cell activation in response to addition of SIINFEKL peptide (SEQ ID NO: 1). The APCs used for T cell activation were bone marrow-derived dendritic cells (BMDCs) harvested from congenic H-2b-MHC haplotype C57BL/6 (B6) mice.
# To set up the screen, BMDCs were harvested, irradiated, and seeded into 96-well tissue culture plates (5×10^4/well) in the presence of 200 nM SIINFEKL peptide (SEQ ID NO: 1) for antigen loading. OT-I^+ CD8^+ T cells were freshly isolated from peripheral lymphoid organs of OT-I mice and added to the BMDCs in 96-well plates (5×10^4/well). One hundred epigenetic inhibitor drugs from a custom library provided by Dr. David Fisher (Massachusetts General Hospital, Boston, MA) were added separately to individual wells for a final concentration of 10 μM or 1 μM. Negative (non-drug treated) wells were given an equivalent volume of DMSO vehicle.
# The OT-I^+ CD8^+ T cells were cultured for 10 days at 37° C., with media changes at days 3, 5, and 7. After 10 days, T cells were collected from the 96-well plates and analyzed by flow cytometry for markers of cell viability, effector differentiation, cytokine secretion, and cytotoxicity.
# For each marker assessed, a change of greater than two standard deviations from the mean of the negative control wells was deemed a significant change.
# To validate the phenotypic changes observed with RGFP966 treatment during the screen, the in vitro activation assay was repeated to compare T cells treated with RGFP966 with vehicle-treated control cells. OT-I^+ CD8^+ T cells were activated with SIINFEKL-pulsed BMDCs as in Example 1 for 7 days, with media changes at days 3 and 5. T cells were then collected and analyzed by flow cytometry for markers of effector differentiation (CD25, PD-1), cytokine secretion (IFN-γ, TNF-α, IL-2), and cytotoxicity (granzyme B).
# An additional study was done on the effects of RGFP966 on T cell expression of phenotypic markers of CD8^+ effector differentiation. T cells were treated with RGFP966 and vehicle using the in vitro activation assay and flow cytometry techniques described above. OT-I^+ CD8^+ T cells were activated with SIINFEKL-pulsed BMDCs (see above) for 7 days, with media changes at days 3 and 5. T cells were collected and analyzed by flow cytometry for markers of effector differentiation (CD25, PD-1), cytokine secretion (IFN-γ, TNF-α, IL-2), and cytotoxicity (granzyme B).
# OT-I^+ CD8^+ T cells were activated with antigen-pulsed BMDCs as described above, and dosed with RGFP966 for different durations of time as depicted in the schematic diagram of FIG. 7A: dose duration A of RGFP966 exposure was from day 0 to day 7 of co-culture: dose duration B of RGFP966 exposure was from day 3 to day 7 of co-culture: dose duration C of RGFP966 exposure was from day 5 to day 7 of co-culture: dose duration D of RGFP966 exposure was from day 0 to day 3 of co-culture: dose duration E of RGFP966 exposure was from day 0 to day 5 of co-culture. These time windows (dose durations A-E) correspond roughly to the early (day 0 to 3), mid-(day 3 to 5), and late (day 5 to 7) phases of T cell activation described in the literature.
# T cells were thoroughly washed with culture media during media changes at a transition point (i.e. drug to no drug or vice versa). T cells in samples D and E (light gray arrows) were re-suspended in conditioned media from parallel cultures of DMSO vehicle-treated T cells in order to maintain similar levels of T cell activating cytokines in the media. […]
# [4] = 10 μM, 7 days activation, relative to DMSO-treated cells
compound,measurement,setting,value
Nc1cc(F)ccc1NC(=O)/C=C/c1cnn(C/C=C/c2ccccc2)c1 [RGFP966],concentration range at which other HDACs are not inhibited,other HDACs,< 15 µM
same,T cell proliferation (total number of live cells),OT-I+ CD8+ T cells [1]; 1 μM,increasing T cell proliferation over vehicle control
same,T cell proliferation (total number of live cells),OT-I+ CD8+ T cells [1]; 10 μM,increasing T cell proliferation as compared to T cells treated with 1 μM RGFP966
same,levels of BCL-6,OT-I+ CD8+ T cells [2],no significant changes
same,levels of BLIMP-1 (PRDM1),OT-I+ CD8+ T cells [2],no significant changes
same,global histone acetylation at H3K9,OT-I+ CD8+ T cells [2]; after 72 hours post-activation,persistently high after 72 hours
same,HDAC3 protein level,OT-I+ CD8+ T cells [2]; immunoblot 2-168 hours,does not result in loss of HDAC3 protein
same,expression of T-BET (TBX21),OT-I+ CD8+ T cells [2]; relative to control-treated cells,increased in the drug-treated cells relative to control-treated cells
same,NCOR2 level,OT-I+ CD8+ T cells [2]; starting at 120 hours post-activation,almost completely absent
same,TNF-α expression measured in pg/mL,"OT-I+ CD8+ T cells [3]; 10 μM compared with 1 μM or vehicle, FIG. 2J",increased expression of the activation marker TNF-α
same,CD25 expression,OT-I+ CD8+ T cells [3]; [4],higher levels
same,IFN-γ expression,OT-I+ CD8+ T cells [3]; [4],higher levels
same,IL-2 expression,OT-I+ CD8+ T cells [3]; [4],higher levels
same,PD-1 expression,OT-I+ CD8+ T cells [3]; [4],higher levels
same,TNF-α expression,OT-I+ CD8+ T cells [3]; [4],higher levels
same,granzyme B expression,OT-I+ CD8+ T cells [3]; [4],more of the cytotoxic effector protein granzyme B
same,expression of CD25 and TNF-α when the drug is washed out midway,"OT-I+ CD8+ T cells [3]; 10 μM, exposure day 0 to 3 or day 0 to 5, relative to all 7 days",did not reduce the expression of CD25 and TNF-α
same,"expression of markers of T cell activation (CD25, TNF-α) when dosing starts at later time points","OT-I+ CD8+ T cells [3]; 10 μM, exposure from day 3 or day 5 to day 7",reduce the expression of markers of T cell activation
same,expression of CD44 and CD62L,"OT-I+ CD8+ T cells [3]; 10 μM, flow cytometry, FIG. 2A, vs vehicle",high expression of CD62L and intermediate to high expression of CD44
same,CD107a positive cells,"OT-I+ CD8+ T cells [3]; 10 μM, flow cytometry, FIG. 2B, vs vehicle",many more CD107a positive cells than the vehicle controls
same,TNF-α positive cells,"OT-I+ CD8+ T cells [3]; 10 μM, flow cytometry, FIG. 2C, vs untreated",larger number of TNF-α positive cells than the untreated T cells
same,effector phenotype of CD8+ T cells in the secondary screen,"OT-I+ CD8+ T cells [3]; 10 μM, screen of HDAC inhibitors",consistently augmented the effector phenotype
same,dose sufficient to augment the effector phenotype of CD8+ T cells,"OT-I+ CD8+ T cells [3]; in vitro activation, titration 0, 1, 3, 5 μM",3 µM
same,dose at which the dose-dependent augmentation of the T cell effector phenotype begins,"OT-I+ CD8+ T cells [3]; titration 0, 1, 3, 5 μM, 7 days",greater than 1 μM
same,percentage of actively proliferating cells measured by Ki-67 expression,"OT-I+ CD8+ T cells [3]; with increasing drug dose, titration 0, 1, 3, 5 μM",reduction in the percentage of actively proliferating cells
